Test results: ChEMBL document CHEMBL1201862, “PubChem BioAssay data set” (2004)
Calls of active or inactive are those of the source.

What was measured:
[1] = viability of HCT116 lacking mutant beta-catenin – cell-based, human colon tumor, dose response (AID 1045); type: functional;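 note: HCT116 colon tumor cells with beta catenin knocked out; cells exposed to compound for 60 hours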
[2] = biological target: T1, DNA repair protein RAD52 homolog (Homo sapiens, UniProt P43351); type: functional, biochemical
T1 sequence (P43351 whole entry): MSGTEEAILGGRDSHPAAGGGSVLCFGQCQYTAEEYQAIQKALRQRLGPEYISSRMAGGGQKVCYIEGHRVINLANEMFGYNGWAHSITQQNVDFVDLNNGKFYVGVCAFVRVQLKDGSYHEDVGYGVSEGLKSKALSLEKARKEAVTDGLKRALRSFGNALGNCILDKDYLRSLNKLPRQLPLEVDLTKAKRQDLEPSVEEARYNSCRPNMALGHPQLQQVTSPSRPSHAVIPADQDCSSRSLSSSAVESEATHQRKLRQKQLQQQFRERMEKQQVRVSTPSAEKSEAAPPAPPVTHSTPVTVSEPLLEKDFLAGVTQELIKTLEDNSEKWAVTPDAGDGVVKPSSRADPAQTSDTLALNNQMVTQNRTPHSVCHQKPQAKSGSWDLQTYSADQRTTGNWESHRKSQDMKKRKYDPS

[3] = viability of PTEN-deleted HCT116 cells – cell-based, HCT116 PTEN knockout, dose response (AID 1047); type: functional;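 note: HCT116 colon tumor cells with PTEN knocked out; cells exposed to compound for 60 hours before readout; potency for loss of cell viability measured by luminescence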
Vero = experiment: cells; type: functional; details: Chlorocebus sabaeus
Phospholipase A2 = Phospholipase A2 (Homo sapiens, UniProt P04054); type: functional;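 note: confirmatory dose-response counterscreen on phospholipase A2, testing hits that came from an ultra-high-throughput screen for ATG4B inhibitors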
[4] = NIH-3T3 fibroblast cytotoxicity, dose response, cytotoxicity control, cell-based, fluorescence, Alamar Blue, secondary assay (AID 2327); type: functional;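 note: NIH-3T3 mouse fibroblasts cultured with fluconazole at 8 µg/mL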
[5] = fluconazole-exposed Candida albicans growth modulators – fluorescence, retest, confirmation (AID 2467); type: functional, cell-based
Streptococcus = experiment: GAS UMAA2166 growth inhibition – luminescence, BacTiterGlo, counter-screen for streptokinase expression inhibitor project, dose response (AID 1915); type: functional, organism-based;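 note: potency for reduction of bacterial viability or growth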
[6] = system: Streptococcus sp. 'group A'; experiment: Streptococcus pyogenes SK(-)GAS viability under kanamycin – luminescence, BacTiterGlo, confirmation, counter-screen for streptokinase expression inhibitor project, dose response (AID 1900); type: functional, organism-based
[7] = NIH3T3 cell viability loss – ATP luminescence, mouse fibroblasts, counter-screen, dose response (AID 2010); type: functional, cell-based;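 note: cells exposed to compound for about 90 hours before reading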
[8] = Trypanosoma cruzi growth suppression in host cells – NIH3T3 host cells, beta-gal luminescence, confirmation (AID 2044); type: functional, cell-based;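 note: intracellular parasites grown in NIH/3T3 mouse fibroblasts as host cells; luminescent beta-galactosidase reporter signal from transgenic T. cruzi replicating inside host cells; inhibitors lower the luminescence signal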
Cysteine protease ATG4B = biological target: T2, Cysteine protease ATG4B (Homo sapiens, UniProt Q9Y4P1); type: functional;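 note: Fluorescence-based dose-response confirmation assay measuring inhibition of ATG4B activity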
T2 sequence (Q9Y4P1 whole entry): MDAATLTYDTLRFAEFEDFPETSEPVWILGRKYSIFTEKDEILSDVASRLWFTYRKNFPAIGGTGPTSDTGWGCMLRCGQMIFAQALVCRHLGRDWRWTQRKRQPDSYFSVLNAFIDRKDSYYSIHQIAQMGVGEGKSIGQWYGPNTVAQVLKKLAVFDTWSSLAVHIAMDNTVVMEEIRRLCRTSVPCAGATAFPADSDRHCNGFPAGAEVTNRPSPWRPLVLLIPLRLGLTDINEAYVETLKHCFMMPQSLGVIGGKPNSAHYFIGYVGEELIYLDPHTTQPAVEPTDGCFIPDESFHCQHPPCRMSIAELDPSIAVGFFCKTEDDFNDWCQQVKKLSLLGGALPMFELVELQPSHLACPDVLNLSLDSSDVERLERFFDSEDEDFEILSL

Streptokinase A = biological target: T3, Streptokinase A (Streptococcus pyogenes serotype M1, UniProt P10520); experiment: viability-normalized secreted streptokinase activity reduction – plasminogen activation absorbance, OD405, dose response (AID 1914); type: functional, Streptococcus pyogenes M1 GAS;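 note: secreted streptokinase activity via plasminogen activation per viability signal from cell pellet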
T3 sequence (P10520 whole entry): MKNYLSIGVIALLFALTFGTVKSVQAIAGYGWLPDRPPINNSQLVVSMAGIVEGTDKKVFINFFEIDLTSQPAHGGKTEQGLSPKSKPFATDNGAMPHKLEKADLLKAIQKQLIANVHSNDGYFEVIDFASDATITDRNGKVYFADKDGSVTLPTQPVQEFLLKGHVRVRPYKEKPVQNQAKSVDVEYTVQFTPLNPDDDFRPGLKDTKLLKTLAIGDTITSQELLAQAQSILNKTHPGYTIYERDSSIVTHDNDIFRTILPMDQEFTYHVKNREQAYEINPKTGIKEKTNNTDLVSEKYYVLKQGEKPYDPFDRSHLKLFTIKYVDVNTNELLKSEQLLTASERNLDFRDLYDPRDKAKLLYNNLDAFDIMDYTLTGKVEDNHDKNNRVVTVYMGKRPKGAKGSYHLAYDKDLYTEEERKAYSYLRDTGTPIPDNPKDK

[9] = biological target: Beta-2 adrenergic receptor (Homo sapiens, UniProt P07550); experiment: ADRB2 activation measured by internalization – cell-based, FAP fluorogen, flow cytometry, cherry pick 1, dose response (AID 588763); type: functional
Cytochrome P450 2D6 = Cytochrome P450 2D6 (Homo sapiens, UniProt P10635);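 note: CYP2D6 member of a cytochrome P450 panel assay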
fMet-Leu-Phe receptor = biological target: T4, fMet-Leu-Phe receptor (Homo sapiens, UniProt P21462); experiment: formyl peptide receptor binders – dose response (AID 519); type: functional
T4 sequence (P21462 whole entry): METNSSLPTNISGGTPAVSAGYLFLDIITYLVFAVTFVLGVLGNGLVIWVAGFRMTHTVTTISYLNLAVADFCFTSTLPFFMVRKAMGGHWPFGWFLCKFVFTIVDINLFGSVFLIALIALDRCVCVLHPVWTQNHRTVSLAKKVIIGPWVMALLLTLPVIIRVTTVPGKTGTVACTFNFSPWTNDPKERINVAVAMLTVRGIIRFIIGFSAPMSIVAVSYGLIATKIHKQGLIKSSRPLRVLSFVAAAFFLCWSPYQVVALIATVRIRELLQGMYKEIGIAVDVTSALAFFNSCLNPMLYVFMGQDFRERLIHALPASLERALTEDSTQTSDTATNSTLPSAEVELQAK

Cytochrome P450 2C19 = Cytochrome P450 2C19 (Homo sapiens, UniProt P33261); experiment: Cytochrome panel assay with activity outcomes. Panel member name: p450-cyp2c19 Compounds with AC50 equal or less than 10 uM are considered active; type: functional; details: read-out: AC50
[10] = biological target: Glucose-6-phosphate 1-dehydrogenase (Homo sapiens, UniProt P11413); experiment: inhibition of Homo sapiens G6PD, dose series – biochemical, fluorescence, selectivity assay for P. falciparum G6PD inhibitor project, dose response (AID 504792); type: functional
HeLa = experiment: ATP-based viability loss in HeLa cells – cell-based, CellTiter-Glo luminescence, cherry-pick samples, cytotoxicity control for MITF activator project, dose response (AID 540259); type: functional; details: Homo sapiens
HEK293 [11] = experiment: cells; type: functional, cell-based; details: Homo sapiens
HEK293 [12] = experiment: inhibition of NOD1-driven NF-kB reporter – cell-based, luminescence, uHTS, primary screen (AID 1578); type: functional; details: Homo sapiens
HEK293 [13] = experiment: cells; type: functional, cell-based; details: Homo sapiens; remark: listed apart in the source
HEK293 [14] = experiment: NOD2 signaling inhibitors in MDP-stimulated cells, cell-based, uHTS, luminescence (AID 2001); type: functional; details: Homo sapiens
HEK293 [15] = experiment: cells; type: functional, cell-based; details: Homo sapiens; remark: listed apart in the source
[16] = biological target: Nucleotide-binding oligomerization domain-containing protein 2 (Homo sapiens, UniProt Q9HC29); experiment: inhibition of NOD2-driven NF-kB reporter – cell-based, luminescence, uHTS, HEK293 (AID 1566); type: functional
Sequence of Nucleotide-binding oligomerization domain-containing protein 2 (Q9HC29 whole entry, the tested form may be a part): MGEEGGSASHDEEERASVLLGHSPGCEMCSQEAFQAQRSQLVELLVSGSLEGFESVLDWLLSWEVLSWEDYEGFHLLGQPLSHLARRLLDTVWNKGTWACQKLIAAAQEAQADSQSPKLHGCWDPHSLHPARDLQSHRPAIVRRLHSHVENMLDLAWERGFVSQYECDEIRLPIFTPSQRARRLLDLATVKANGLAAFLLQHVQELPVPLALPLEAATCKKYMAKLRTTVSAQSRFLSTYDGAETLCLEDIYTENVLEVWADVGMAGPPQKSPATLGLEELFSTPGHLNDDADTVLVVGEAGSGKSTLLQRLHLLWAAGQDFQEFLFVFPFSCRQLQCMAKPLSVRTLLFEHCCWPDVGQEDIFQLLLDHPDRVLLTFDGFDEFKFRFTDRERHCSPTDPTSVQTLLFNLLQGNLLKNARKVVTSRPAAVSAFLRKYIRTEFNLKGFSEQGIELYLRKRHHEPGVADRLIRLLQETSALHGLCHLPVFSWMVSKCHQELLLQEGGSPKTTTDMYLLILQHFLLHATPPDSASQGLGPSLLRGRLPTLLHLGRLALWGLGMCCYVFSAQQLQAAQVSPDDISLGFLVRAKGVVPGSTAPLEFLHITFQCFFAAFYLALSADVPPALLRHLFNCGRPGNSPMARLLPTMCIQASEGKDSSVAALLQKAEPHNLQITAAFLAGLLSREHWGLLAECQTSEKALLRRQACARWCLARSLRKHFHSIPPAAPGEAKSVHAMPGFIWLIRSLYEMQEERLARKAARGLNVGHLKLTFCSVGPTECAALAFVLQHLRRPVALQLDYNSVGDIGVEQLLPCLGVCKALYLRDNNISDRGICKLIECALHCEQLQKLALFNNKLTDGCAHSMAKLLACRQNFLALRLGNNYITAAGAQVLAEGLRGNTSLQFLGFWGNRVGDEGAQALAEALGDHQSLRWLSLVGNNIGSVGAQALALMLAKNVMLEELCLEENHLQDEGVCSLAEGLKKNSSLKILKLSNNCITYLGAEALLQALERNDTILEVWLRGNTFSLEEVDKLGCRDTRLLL

Sequence of Phospholipase A2 (P04054 whole entry): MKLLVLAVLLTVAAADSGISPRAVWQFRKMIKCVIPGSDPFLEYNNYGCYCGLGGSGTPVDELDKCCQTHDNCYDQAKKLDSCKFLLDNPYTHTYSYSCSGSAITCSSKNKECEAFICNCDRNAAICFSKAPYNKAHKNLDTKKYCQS
Sequence of Cytochrome P450 2D6 (P10635 whole entry): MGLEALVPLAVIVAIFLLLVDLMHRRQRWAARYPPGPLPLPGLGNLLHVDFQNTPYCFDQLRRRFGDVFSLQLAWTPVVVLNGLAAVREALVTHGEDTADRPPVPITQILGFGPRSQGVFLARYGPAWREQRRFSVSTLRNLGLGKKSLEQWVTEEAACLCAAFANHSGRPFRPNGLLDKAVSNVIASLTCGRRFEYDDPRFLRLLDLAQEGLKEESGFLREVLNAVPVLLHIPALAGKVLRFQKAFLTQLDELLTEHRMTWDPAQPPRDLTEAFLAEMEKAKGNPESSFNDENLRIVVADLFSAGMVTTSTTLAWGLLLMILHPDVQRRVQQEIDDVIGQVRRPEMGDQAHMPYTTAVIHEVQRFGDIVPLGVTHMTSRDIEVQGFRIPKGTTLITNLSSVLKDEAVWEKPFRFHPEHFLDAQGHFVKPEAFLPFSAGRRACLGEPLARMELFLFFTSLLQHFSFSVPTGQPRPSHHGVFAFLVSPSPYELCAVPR
Sequence of Cytochrome P450 2C19 (P33261 whole entry): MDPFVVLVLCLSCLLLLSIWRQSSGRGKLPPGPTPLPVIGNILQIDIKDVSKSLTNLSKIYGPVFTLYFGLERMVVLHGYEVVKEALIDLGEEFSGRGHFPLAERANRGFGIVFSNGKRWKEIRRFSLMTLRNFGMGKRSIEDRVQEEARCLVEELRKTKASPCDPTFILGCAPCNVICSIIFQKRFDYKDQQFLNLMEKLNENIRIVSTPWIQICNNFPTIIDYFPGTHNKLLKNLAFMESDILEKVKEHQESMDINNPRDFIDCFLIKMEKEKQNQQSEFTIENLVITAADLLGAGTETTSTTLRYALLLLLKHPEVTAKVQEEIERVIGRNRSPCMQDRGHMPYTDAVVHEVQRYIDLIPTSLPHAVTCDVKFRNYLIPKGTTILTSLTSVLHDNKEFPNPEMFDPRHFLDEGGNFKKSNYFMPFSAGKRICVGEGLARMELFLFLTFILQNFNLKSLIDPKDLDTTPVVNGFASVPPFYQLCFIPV
Sequence of Beta-2 adrenergic receptor (P07550 whole entry): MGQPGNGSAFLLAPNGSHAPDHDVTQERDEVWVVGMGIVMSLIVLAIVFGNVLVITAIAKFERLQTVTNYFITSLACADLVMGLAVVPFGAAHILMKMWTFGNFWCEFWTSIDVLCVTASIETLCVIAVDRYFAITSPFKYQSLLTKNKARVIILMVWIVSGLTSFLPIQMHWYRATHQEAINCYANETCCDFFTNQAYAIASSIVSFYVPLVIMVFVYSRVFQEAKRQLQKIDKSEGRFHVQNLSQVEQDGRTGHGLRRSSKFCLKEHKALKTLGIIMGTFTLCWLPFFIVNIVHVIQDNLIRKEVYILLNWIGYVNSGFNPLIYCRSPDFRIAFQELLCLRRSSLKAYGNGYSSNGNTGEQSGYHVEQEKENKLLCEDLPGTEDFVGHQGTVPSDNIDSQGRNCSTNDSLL
Sequence of Glucose-6-phosphate 1-dehydrogenase (P11413 whole entry): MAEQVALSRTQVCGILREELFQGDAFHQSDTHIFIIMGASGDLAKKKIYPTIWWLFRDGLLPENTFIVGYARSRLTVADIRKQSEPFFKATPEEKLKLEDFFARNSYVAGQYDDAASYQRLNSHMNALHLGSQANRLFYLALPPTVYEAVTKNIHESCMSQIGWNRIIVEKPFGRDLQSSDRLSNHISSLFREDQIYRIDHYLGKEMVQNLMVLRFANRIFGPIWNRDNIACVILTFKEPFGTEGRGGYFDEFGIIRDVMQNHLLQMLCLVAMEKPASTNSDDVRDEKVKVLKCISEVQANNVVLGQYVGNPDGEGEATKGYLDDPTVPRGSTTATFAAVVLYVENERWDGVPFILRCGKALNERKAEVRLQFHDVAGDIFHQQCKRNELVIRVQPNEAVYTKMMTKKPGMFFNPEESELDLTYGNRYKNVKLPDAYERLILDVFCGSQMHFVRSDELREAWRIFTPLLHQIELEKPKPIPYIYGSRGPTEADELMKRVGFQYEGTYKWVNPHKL

Compound: CCCCCCCOC(=O)C[N+](C)(C)CCOC1CC2CCC1(C)C2(C)C (configuration not stated)
- EC50 [1]: 20.2 µM (active)
- AC50 [2]: 29.2 µM (active)
- EC50 [3]: 15.8 µM (active)
- CC50 (Vero): > 25 µM (active)
- IC50 (Phospholipase A2): 10.3 µM (active)
- EC50 [4]: > 150 µM (inactive)
- EC50 [5]: 0.997 µM (active)
- EC50 (Streptococcus): 9.21 µM (active)
- EC50 [6]: 3.84 µM (active)
- EC50 [7]: > 60 µM (not active)
- EC50 [8]: 0.224 µM (active)
- IC50 (Cysteine protease ATG4B): 7.62 µM (active)
- EC50 (Streptokinase A): 5.77 µM (active)

Compound: Cc1ccc(O)c(NC(=O)c2cccc(NC(=O)c3ccco3)c2)c1
- EC50 [9]: 0.132 µM (active)

Compound: O=C(O)C1CCCCC1C(=O)Nc1ccccc1Cl (configuration not stated)
- AC50 (Cytochrome P450 2D6): inconclusive
- Ki (fMet-Leu-Phe receptor): > 66.7 µM (inactive)
- AC50 (Cytochrome P450 2C19): 2.24 µM (inconclusive)

Compound: COc1ccc(/C=C/c2nc3ccccc3n2Cc2ccc(OC)c(OC)c2)cc1
- IC50 [10]: > 80 µM (inactive)
- AC50 (HeLa): 37 µM (active)

Compound: Cc1onc(-c2ccccc2)c1CNC(=O)Nc1cccc(Cl)c1
- IC50 (Phospholipase A2): 8.35 µM (active)
- IC50 (Cysteine protease ATG4B): 15 µM (active)

Compound: COc1ccc(-c2cc(=O)oc3cc(O)ccc23)cc1
- IC50 (HEK293 [11]): > 20 µM (inactive)
- EC50 (HEK293 [12]): 5.67 µM (active)
- IC50 (HEK293 [13]): > 20 µM (inactive)
- IC50 (HEK293 [14]): 3.06 µM (active)
- IC50 (HEK293 [15]): 2.45 µM (active)
- EC50 [16]: 5.73 µM (active)
